# Laboratory results from patent US20120258938A1, “Enzymatic Production or Chemical Synthesis and Uses for 5,7-Dienes and UVB Conversion Products Thereof” (priority 2008, published 2012).
# pEC50: −log10 of the molar value.
# Columns and labels:
# [1] = system: AbC1 hamster melanoma cells; experiment: Proliferation (DNA synthesis) of AbC1; format: cell-based; conditions: AbC1, 72 h
# Protocol: To measure DNA synthesis, keratinocytes, melanoma or prostate cancer cells were plated in 96-well plates. After overnight incubation tested compounds were added to the medium to achieve final concentrations 10^−7-10^−10 [M]. 100 μl of medium per well containing vitamin D3 compound was added to the cells. After 36 hours of incubation [3H]-thymidine (specific activity 88.0 Ci/mmol; Amersham Biosciences, Picataway, N.Y., USA) was added at 1 μCi/mL medium. After 12 hours, media were discarded, cells detached with trypsin and harvested on a glass fiber filter (Packard, Meriden, Calif., USA). 3H-radioactivity was measured with a beta counter (Direct Beta-Counter Matrix 9600; Packard).
# HaCaT keratinocytes were an incubated for 48 h (FIG. 48A) or 72 h (FIG. 48B) in the presence of graded concentrations of 20(OH)D2 and/or 1,25(OH)2D3. […] Data are shown as mean±SD (n 3); *, p<0.05; **, p<0.01.
# rat CYP24 = molecular target: T1, rat CYP24 (Rattus norvegicus, UniProt Q09128); experiment: Metabolism by rat CYP24 in phospholipid vesicles
# T1 sequence (Q09128 36-514): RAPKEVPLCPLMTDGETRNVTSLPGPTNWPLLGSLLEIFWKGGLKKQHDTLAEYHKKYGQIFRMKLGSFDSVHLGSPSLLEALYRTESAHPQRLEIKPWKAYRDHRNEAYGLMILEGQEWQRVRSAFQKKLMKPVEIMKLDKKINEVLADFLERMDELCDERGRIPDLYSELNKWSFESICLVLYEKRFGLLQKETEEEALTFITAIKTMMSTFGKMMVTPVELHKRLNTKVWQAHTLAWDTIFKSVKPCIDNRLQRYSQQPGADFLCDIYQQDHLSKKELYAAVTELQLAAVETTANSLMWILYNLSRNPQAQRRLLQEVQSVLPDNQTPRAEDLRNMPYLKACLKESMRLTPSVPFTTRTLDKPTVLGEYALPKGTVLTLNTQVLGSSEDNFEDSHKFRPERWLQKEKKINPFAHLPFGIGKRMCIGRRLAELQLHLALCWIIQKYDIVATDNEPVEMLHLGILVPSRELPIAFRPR
# Protocol: Samples (typically 0.25-1.0 mL) were incubated at 37° C., with shaking, then reactions terminated by the addition of 2.5 mL ice-cold dichloromethane and vortexing. After phase separation aided by centrifugation, the lower organic phase was retained and the upper aqueous phase was extracted twice more with 2.5 mL aliquots of dichloromethane. The dichloromethane was removed under nitrogen and the residual sample dissolved in solvent for HPLC analysis.
# To test enzymatic metabolism of 20S(OH)D3 and 20R(OH)D3, the substrates were incorporated into phospholipid vesicles with the ratio of substrate to phospholipid being 0.025 mol/mol phospholipid. Vesicles were incubated with 2 μM bovine CYP11A1 or 0.06 μM human CYP27B1 for up to 10 min. To test enzymatic metabolism of 20(OH)D3 in CYP24, the substrate was incorporated into phospholipids vesicles with 0.15-0.5 μM CYP24. To test enzymatic metabolism of 20(OH)D3 in CYP27A1, purified CYP27A1 was preincubated with the vesicles for 6 min at 37° C. Adrenodoxin was added last to initiate the reaction. For kinetic experiments, the incubations were typically 0.5 mL and were carried out over the initial linear period of the reaction (10 min for vitamin D3 and cholesterol and 30 min for 20(OH)D3).
# [2] = system: collagen-induced arthritis (CIA) in DBA/1 Lac J mice; experiment: Type II collagen-induced arthritis (CIA) model; format: in vivo, mouse; conditions: i.p. every day at 2.5 μg/kg from day 14 post CII immunization
# Excerpt: The CIA model in DBA/1 Lac J mice has been widely studied as a model with some features of human RA, and has served as a reliable model to study various mediators and therapies of autoimmune arthritis. The immunization of DBA/1 Lac J mice with native bovine CII in complete Freund's adjuvant (CFA) is followed 10-14 days later by the onset of arthritis in the distal extremities. […] The arthritis is characterized by acute, subacute and chronic inflammation that correlates with histologic changes in distal extremity joints that progressively worsens during the subsequent 10 to 40 day period. The arthritis is dependent on the generation of inflammatory mediators from activation of the complement cascade by anti-CII antibodies, the infiltration of neutrophils, monocytes and T cells into the joint resulting in liberation of inflammatory cytokines and various proteases (42).
# Twenty-four DBA/1 Lac J female mice 6 wks old were immunized with bovine CII in CFA. […] Arthritis severity was assessed every 3-4 days by two observers and each paw was given a score of 0=no swelling; 1=slight swelling and redness; 2=moderate swelling and redness; 3=marked swelling and redness; and 4=marked swelling and redness with deformity. […]
# [3] = system: human breast carcinoma cell line MD-MBA-231; experiment: Proliferation of MD-MBA-231 breast carcinoma cells; format: cell-based; conditions: MD-MBA-231, 48 h, [3H]-thymidine
# Protocol: Cells were seeded in 96-well plate and incubated with 20-hydroxycholecalciferol in DMEM medium containing 5% FBS for 48 h (FIG. 25A) or 72 h (FIG. 25C) or for 24 h after a 12 h synchronization in serum free medium (FIG. 25D). […] was added for a final 18 h (FIGS. 25A, 25D) or 12 h (FIG. 25C) of incubation or cells were assessed with sulforhodamine assay (FIG. 25C). Data is shown as mean±SEM (n=5; FIG. 24C) or mean±SEM (n=6; FIGS. 24A, 24C, 24D) and was analyzed using GraphPrism 4.0.
# [4] = system: bleomycin-induced scleroderma in C57BL/6 mice; experiment: Bleomycin-induced scleroderma in mice; format: in vivo, mouse
# Protocol: […] The skin was injected S.C. with 20(OH)D3 or vehicle daily within the same 1.5 cm^2 area. On day 22, all mice were euthanized and skin in the shaved area of the back was treated with a depilatory agent after which a biopsy of 1 cm circumference encompassing the S.C. injection site was taken to a depth to include the full thickness of the dermis. The skin samples from 5 randomly selected mice from each group were weighed and snap frozen in liquid nitrogen. Later, the skin samples were thawed and treated overnight with pepsin (0.1 mg/ml) of 0.5 M acetic acid at 4° C. with constant rocking to remove terminal non-helical telopeptides to release the collagen into solution. Total solubilized collagen was quantitative using a Sircol Collagen Assay kit using type I bovine collagen to obtain a standard curve. The collagen content of the skin samples was expressed as μg of collagen per mg tissue weight. Results for the groups were expressed as mean±SEM and analyzed by one way ANOVA with p values<0.05 considered to be statistically significant.
smiles,measurement,setting,value
"C=C1/C(=C\C=C2/CCC[C@]3(C)[C@@H]([C@H](C)CCCC(C)(C)O)CC[C@@H]23)C[C@@H](O)C[C@@H]1O [1α,25-dihydroxycholecalciferol, (5Z,7E)-9,10-secocholesta-5,7,10(19)-triene-1α,3β,25-triol, reference compound]",proliferation,[1],Dose dependent inhibition of the proliferation
"C=C1CC[C@H](O)C/C1=C/C=C1\CCC[C@@]2(C)[C@H]1CC[C@@H]2[C@@](C)(O)CCCC(C)C [20(OH)D3, (5Z,7E)-9,10-secocholesta-5,7,10(19)-triene-3β,20-diol]",Km,rat CYP24,0.028±0.007 mol substrate/mol phospholipid
same,kcat/Km,rat CYP24,386 min^−1(mol substrate/mol phospholipid)^−1
same,kcat,rat CYP24; phospholipid vesicles,10.8±0.8 mol/min/mol CYP24
same,"kcat/Km lower than for 1,25(OH)2D3",rat CYP24; phospholipid vesicles,24 fold
same,kcat/Km lower than that for 25(OH)D3,rat CYP24; phospholipid vesicles,17 fold
same,arthritis severity (CIA),[2],suppresses CIA
same,pEC50,[3],8.00
same,bleomycin-induced increase of total skin collagen,"[4]; 3 μg/kg daily dose, 21 days",prevented
same,body weight less than the vehicle control group,"[4]; bleomycin + 20(OH)D3, 21 days",13.6%
